Laboratory results reported in article PMC11912475 (Journal of Medicinal Chemistry, 2025).

Legend:
Serotonin 5-HT1A = target: T1, Serotonin 5-HT1A (Homo sapiens, UniProt P08908); assay: Radioligand displacement binding assay, [3H]8-OH-DPAT, 5-HT1A
T1 construct: host or cells: CHO-K1
T1 sequence (P08908 1-422): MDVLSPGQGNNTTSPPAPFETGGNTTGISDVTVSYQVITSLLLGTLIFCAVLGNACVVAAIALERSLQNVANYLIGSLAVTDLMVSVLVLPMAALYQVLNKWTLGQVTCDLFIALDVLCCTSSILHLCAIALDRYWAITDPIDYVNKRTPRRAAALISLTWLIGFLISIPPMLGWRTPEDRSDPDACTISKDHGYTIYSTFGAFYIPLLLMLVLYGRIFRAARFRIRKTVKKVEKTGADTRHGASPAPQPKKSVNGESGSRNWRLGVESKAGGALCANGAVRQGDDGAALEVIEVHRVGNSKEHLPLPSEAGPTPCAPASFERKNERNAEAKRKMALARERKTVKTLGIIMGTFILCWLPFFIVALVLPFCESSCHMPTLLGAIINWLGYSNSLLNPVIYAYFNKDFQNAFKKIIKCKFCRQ

[1] = target: GluN1-GluN2A NMDAR subtype (Homo sapiens, UniProt Q05586+Q12879); assay: FLIPR/Ca2+ assay, NMDAR GluN1-GluN2A subtype in CHO cells; assay type: cell-based; details: CHO cells, 10 μM L-glutamate and 10 μM glycine; n.d. = 50% of inhibition could not be reached at the highest concentration used
Outline: (§1)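 Fluo-4-loaded CHO cells (with probenecid and 500 μM ketamine during loading) stimulated with 10 μM L-glutamate plus 10 μM glycine added together with compounds, in HEPES buffer pH 7.3 with 2 mM CaCl2.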

[2] = target: T2, Norepinephrine transporter NET (Homo sapiens, UniProt P23975); assay: Radioligand displacement binding assay, [125I]RTI-55, NET
T2 construct: host or cells: MDCK
T2 sequence (P23975 whole entry): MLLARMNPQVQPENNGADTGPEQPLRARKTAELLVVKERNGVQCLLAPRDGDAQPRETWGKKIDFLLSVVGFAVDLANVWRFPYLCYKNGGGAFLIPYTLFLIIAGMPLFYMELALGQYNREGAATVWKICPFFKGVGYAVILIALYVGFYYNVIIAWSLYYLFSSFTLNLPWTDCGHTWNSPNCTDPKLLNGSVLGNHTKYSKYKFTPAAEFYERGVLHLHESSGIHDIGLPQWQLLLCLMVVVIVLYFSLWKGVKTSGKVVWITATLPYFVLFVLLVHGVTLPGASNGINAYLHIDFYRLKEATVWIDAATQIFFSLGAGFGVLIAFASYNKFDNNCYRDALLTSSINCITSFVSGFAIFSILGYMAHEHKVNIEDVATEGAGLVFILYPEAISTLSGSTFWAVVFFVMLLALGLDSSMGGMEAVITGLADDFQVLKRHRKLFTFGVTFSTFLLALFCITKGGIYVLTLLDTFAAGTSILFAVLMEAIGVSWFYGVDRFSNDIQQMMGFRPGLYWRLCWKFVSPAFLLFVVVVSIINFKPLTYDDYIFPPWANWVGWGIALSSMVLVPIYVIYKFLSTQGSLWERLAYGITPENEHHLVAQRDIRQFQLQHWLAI

[3] = target: GluN1-GluN2D NMDAR subtype (Homo sapiens, UniProt O15399+Q05586); assay: FLIPR/Ca2+ assay, NMDAR GluN1-GluN2D subtype in CHO cells; assay type: cell-based; details: CHO cells, 10 μM L-glutamate and 10 μM glycine; n.d. = 50% of inhibition could not be reached at the highest concentration used
Outline: as §1

Serotonin 5-HT2C = target: T3, Serotonin 5-HT2C (Homo sapiens, UniProt P28335); assay: Radioligand displacement binding assay, [3H]mesulergine, 5-HT2C
T3 construct: host or cells: CHO-K1
T3 sequence (P28335 33-458): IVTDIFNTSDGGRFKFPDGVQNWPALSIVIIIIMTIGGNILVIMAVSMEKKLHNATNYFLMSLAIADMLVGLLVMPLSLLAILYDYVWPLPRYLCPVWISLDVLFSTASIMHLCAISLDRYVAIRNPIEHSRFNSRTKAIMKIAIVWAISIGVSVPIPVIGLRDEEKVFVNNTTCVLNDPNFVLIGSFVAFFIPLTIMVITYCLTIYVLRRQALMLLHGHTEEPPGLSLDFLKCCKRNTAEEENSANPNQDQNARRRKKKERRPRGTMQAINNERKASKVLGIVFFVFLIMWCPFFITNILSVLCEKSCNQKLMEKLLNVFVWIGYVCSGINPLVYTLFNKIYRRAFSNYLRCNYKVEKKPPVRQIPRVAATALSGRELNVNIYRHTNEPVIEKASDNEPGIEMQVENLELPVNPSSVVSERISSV

Serotonin 5-HT2A = target: T4, Serotonin 5-HT2A (Homo sapiens, UniProt P28223); assay: Radioligand displacement binding assay, [3H]ketanserin, 5-HT2A
T4 construct: host or cells: CHO-K1
T4 sequence (P28223 whole entry): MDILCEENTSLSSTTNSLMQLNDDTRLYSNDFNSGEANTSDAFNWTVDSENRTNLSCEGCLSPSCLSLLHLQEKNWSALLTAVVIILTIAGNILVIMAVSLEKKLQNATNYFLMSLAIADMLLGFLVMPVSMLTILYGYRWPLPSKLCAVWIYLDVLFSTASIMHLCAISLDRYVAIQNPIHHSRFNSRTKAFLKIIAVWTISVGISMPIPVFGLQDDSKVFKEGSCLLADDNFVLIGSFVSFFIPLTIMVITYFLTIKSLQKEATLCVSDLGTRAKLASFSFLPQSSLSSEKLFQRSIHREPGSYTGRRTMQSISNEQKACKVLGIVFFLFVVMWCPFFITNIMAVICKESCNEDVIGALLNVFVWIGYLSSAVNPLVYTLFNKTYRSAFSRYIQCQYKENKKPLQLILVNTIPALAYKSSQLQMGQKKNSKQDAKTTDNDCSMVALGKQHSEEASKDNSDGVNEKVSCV

Serotonin 5-HT5A = target: T5, Serotonin 5-HT5A (Homo sapiens, UniProt P47898); assay: Radioligand displacement binding assay, [3H]LSD, 5-HT5A
T5 construct: host or cells: CHO-K1

μ opioid receptor (MOP) = target: T6, μ opioid receptor (MOP) (Homo sapiens, UniProt P35372); assay: biochemical; assay type: binding; details: read-out: % inhibition of binding, MOP
T6 construct: host or cells: CHO-K1
T6 sequence (P35372 whole entry): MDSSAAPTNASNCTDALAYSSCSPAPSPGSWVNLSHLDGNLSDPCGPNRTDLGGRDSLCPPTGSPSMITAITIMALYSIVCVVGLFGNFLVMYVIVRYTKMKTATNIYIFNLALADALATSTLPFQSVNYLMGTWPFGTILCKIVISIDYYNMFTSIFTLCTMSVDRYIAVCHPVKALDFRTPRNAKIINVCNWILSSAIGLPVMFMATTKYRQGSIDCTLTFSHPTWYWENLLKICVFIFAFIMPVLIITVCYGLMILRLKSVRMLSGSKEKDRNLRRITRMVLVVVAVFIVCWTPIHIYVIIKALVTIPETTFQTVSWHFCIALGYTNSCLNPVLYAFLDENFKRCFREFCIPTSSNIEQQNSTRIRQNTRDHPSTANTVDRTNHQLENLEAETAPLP

Muscarinic M5 = target: T7, Muscarinic M5 (Homo sapiens, UniProt P08912); assay: Radioligand displacement binding assay, [3H]N-methylscopolamine, M5
T7 construct: host or cells: CHO-K1
T7 sequence (P08912 1-532): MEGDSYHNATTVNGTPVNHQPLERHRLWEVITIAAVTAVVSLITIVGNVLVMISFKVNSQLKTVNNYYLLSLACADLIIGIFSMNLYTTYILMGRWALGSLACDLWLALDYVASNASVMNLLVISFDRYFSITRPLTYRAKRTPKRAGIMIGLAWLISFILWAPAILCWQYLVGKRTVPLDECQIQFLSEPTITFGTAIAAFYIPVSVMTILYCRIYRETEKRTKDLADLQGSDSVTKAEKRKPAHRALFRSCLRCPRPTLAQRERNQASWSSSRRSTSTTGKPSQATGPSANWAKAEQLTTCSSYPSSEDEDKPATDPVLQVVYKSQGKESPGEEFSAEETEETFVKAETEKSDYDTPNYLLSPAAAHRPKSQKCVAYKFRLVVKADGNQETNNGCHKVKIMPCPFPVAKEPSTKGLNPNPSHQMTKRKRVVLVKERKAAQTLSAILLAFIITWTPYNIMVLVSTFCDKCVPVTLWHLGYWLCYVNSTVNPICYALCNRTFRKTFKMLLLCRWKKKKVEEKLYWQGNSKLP

Histamine H1 = target: T8, Histamine H1 (Homo sapiens, UniProt P35367); assay: Radioligand displacement binding assay, [3H]pyrilamine, H1
T8 construct: host or cells: CHO-K1

[4] = target: T9, Serotonin transporter SERT (Homo sapiens, UniProt P31645); assay: Radioligand displacement binding assay, [3H]paroxetine, SERT; details: for % inhibition of binding, SERT / inhibition at 10 µM: 10 μM
T9 construct: host or cells: HEK-293
T9 sequence (P31645 whole entry): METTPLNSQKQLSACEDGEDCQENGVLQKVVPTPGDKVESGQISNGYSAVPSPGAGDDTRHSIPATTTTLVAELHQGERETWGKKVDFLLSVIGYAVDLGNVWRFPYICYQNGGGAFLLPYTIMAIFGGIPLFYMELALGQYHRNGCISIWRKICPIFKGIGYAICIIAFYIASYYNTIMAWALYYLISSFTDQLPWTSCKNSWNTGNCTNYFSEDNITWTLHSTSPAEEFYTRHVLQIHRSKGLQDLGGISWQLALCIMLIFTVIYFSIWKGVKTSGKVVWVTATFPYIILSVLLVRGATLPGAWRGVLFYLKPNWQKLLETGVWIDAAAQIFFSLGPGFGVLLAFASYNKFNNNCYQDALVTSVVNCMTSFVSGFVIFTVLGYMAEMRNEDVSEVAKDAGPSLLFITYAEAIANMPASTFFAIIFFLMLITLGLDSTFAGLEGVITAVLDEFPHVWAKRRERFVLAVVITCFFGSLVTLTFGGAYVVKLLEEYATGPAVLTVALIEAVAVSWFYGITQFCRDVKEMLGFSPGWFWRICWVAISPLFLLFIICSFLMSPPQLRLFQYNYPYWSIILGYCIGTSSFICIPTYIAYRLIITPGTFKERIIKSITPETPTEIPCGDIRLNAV

Sigma σ1 = target: T10, Sigma σ1 (Homo sapiens, UniProt Q99720); assay: Radioligand displacement binding assay, [3H]pentazocine, sigma σ1
T10 construct: Sigma σ1; Source: Human Jurkat cells; host or cells: Jurkat
T10 sequence (Q99720 whole entry): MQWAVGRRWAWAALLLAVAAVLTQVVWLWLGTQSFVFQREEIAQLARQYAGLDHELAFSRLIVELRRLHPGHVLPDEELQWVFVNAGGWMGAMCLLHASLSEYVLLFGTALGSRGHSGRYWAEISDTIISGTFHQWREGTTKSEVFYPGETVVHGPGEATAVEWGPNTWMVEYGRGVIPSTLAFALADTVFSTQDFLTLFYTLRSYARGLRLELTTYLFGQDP

[5] = target: GluN1-GluN2C NMDAR subtype (Homo sapiens, UniProt Q05586+Q14957); assay: FLIPR/Ca2+ assay, NMDAR GluN1-GluN2C subtype in CHO cells; assay type: cell-based; details: CHO cells, 10 μM L-glutamate and 10 μM glycine; n.d. = 50% of inhibition could not be reached at the highest concentration used
Chain of GluN1-GluN2C NMDAR subtype (Q14957 20-1233, other chains not shown): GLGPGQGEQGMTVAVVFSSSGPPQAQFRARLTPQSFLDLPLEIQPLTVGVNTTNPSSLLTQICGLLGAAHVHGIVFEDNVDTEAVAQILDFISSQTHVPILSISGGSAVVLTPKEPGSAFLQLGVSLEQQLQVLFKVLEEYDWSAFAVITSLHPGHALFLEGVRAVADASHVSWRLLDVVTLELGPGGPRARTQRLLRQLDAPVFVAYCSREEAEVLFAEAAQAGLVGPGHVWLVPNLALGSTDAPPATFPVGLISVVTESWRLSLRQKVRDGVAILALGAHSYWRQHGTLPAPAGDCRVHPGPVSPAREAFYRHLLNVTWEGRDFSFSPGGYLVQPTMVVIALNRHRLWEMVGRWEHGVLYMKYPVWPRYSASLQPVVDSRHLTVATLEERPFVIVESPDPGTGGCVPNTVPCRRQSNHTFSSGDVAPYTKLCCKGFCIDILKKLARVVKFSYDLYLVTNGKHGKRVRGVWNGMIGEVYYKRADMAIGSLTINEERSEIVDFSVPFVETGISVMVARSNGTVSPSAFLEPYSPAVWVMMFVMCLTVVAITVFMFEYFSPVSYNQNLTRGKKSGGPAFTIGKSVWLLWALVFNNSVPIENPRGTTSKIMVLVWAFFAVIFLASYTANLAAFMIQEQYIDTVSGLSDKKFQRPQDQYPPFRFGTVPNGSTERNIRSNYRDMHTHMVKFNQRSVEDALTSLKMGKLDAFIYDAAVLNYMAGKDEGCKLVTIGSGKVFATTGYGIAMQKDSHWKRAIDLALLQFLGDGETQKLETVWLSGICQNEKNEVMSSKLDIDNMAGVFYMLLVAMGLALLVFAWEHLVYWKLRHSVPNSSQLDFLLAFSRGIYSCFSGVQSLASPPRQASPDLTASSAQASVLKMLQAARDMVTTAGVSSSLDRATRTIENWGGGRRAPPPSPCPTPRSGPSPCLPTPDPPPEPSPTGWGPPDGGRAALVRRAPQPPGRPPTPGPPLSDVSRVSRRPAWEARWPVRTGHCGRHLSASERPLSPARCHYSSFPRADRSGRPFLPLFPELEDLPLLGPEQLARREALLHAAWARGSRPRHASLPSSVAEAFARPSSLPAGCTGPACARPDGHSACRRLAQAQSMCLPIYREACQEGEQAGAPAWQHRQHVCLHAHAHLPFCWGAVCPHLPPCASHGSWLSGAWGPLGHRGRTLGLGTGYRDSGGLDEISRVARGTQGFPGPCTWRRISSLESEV
Outline: as §1

[6] = target: T11, GluN1-GluN2B NMDAR subtype (Homo sapiens, UniProt Q05586+Q13224); assay: FLIPR/Ca2+ assay, NMDAR GluN1-GluN2B subtype in CHO cells; assay type: cell-based; details: CHO cells, 10 μM L-glutamate and 10 μM glycine; n.d. = 50% of inhibition could not be reached at the highest concentration used
T11 construct: host or cells: NR1-2B-CHO cells, constitutive expression
T11 sequence (Q13224 27-1484, other chains not shown): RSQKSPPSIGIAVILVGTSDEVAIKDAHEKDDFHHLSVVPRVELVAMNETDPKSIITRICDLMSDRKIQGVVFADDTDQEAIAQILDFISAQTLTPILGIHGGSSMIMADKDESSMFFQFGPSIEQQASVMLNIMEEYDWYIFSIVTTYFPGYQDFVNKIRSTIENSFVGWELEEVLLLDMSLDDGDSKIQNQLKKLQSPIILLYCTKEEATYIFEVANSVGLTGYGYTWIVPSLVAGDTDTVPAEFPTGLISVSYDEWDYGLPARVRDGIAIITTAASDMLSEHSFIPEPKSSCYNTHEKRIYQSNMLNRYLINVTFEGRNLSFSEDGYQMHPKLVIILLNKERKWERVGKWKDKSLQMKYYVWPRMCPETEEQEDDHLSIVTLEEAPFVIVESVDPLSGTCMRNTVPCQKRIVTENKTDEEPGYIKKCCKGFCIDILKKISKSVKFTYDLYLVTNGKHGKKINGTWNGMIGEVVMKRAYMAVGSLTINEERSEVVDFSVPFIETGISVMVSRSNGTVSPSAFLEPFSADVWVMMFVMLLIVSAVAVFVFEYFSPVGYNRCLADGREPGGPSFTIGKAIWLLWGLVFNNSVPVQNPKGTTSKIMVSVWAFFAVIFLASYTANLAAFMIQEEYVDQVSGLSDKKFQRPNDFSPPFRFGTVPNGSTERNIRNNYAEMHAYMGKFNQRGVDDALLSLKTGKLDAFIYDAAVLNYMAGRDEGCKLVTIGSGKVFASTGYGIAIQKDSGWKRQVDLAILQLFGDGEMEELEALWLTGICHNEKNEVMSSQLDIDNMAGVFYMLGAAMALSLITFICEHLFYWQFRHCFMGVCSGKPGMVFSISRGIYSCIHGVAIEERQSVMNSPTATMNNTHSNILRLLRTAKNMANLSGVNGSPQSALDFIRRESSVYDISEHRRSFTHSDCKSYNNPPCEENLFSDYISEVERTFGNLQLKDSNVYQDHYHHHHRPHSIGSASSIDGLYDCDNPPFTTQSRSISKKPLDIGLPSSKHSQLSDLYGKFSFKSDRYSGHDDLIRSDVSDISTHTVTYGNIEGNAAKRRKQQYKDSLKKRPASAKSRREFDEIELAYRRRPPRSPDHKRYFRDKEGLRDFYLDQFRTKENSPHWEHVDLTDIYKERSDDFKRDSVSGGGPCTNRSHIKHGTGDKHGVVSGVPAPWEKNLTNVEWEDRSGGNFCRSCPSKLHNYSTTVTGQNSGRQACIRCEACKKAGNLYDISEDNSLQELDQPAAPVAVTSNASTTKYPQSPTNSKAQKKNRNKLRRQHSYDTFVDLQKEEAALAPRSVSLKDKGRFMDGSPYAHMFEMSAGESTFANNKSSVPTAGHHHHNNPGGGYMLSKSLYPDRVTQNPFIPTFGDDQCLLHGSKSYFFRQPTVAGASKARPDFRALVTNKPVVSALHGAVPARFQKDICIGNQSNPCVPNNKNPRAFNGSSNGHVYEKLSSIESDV
Outline: as §1

[7] = tested on: Glutamate, NMDA, Phencyclidine binding site; assay: Radioligand displacement binding assay, [3H]TCP, NMDA; parameters: species or system Wistar rat
Serotonin 5-HT7 = target: T12, Serotonin 5-HT7 (Homo sapiens, UniProt P34969); assay: Radioligand displacement binding assay, [3H]LSD, 5-HT7
T12 construct: host or cells: CHO-K1

SMILES	inhibition at 0.3 µM (Serotonin 5-HT1A)	inhibition at 3 µM (Serotonin 5-HT1A)	pIC50 (mean ± SEM) GluN1-GluN2A [1]	inhibition at 1 µM [2]	inhibition at 10 µM [2]	pIC50 (mean ± SEM) GluN1-GluN2D [3]	inhibition at 0.3 µM (Serotonin 5-HT2C)	inhibition at 3 µM (Serotonin 5-HT2C)	inhibition at 0.3 µM (Serotonin 5-HT2A)	inhibition at 3 µM (Serotonin 5-HT2A)	inhibition at 1 µM (Serotonin 5-HT5A)	inhibition at 10 µM (Serotonin 5-HT5A)	inhibition at 0.3 µM (μ opioid receptor (MOP))	inhibition at 3 µM (μ opioid receptor (MOP))	inhibition at 1 µM (Muscarinic M5)	inhibition at 10 µM (Muscarinic M5)	inhibition at 10 µM (Histamine H1)	inhibition at 30 µM (Histamine H1)	inhibition at 1 µM [4]	inhibition at 10 µM [4]	further results
CC[C@H](O)C(C[C@H](C)N)(c1ccccc1)c1ccccc1 [(3S,6S)-DNML, (3S,6S)-6-amino-4,4-diphenylheptan-3-ol]	24%	15%	4.9 ± 0.081	-5%	3%	4.7 ± 0.079	1%	19%	12%	10%	-7%	-12%	38%	84%	1%	9%	5%	24%	35%	82%	% inhibition of binding, SERT [4]: displaced; inhibition at 0.3 µM (Sigma σ1): 46%; inhibition at 3 µM (Sigma σ1): 71%; pIC50 (mean ± SEM) GluN1-GluN2C [5]: 4.7 ± 0.056; pIC50 (mean ± SEM) GluN1-GluN2B [6]: 4.4 ± 0.13; % inhibition of binding, NMDA ([7]; 1 μM): 9%; % inhibition of binding, NMDA ([7]; 10 μM): 36%; inhibition at 1 µM (Serotonin 5-HT7): 5%; inhibition at 10 µM (Serotonin 5-HT7): 4%
CC[C@@H](O)C(C[C@H](C)NC)(c1ccccc1)c1ccccc1 [(3R,6S)-NML, (3R,6S)-6-(methylamino)-4,4-diphenylheptan-3-ol]	5%	11%	4.4 ± 0.037	10%	14%	4.7 ± 0.057	-4%	5%	0%	4%	-1%	15%	1%	29%	11%	46%	6%	43%	12%	45%	inhibition at 0.3 µM (Sigma σ1): 47%; inhibition at 3 µM (Sigma σ1): 80%; pIC50 (mean ± SEM) GluN1-GluN2C [5]: 4.6 ± 0.046; pIC50 (mean ± SEM) GluN1-GluN2B [6]: 4.5 ± 0.053; % inhibition of binding, NMDA ([7]; 1 μM): 8%; % inhibition of binding, NMDA ([7]; 10 μM): 48%; inhibition at 1 µM (Serotonin 5-HT7): 14%; inhibition at 10 µM (Serotonin 5-HT7): 28%
CC[C@@H](O)C(C[C@H](C)N)(c1ccccc1)c1ccccc1 [(3R,6S)-DNML, (3R,6S)-6-amino-4,4-diphenylheptan-3-ol]	1%	-1%	4.6 ± 0.077	0%	5%	4.9 ± 0.093	3%	-1%	6%	9%	-1%	16%	-3%	26%	9%	13%	4%	19%	29%	65%	% inhibition of binding, SERT [4]: displaced; inhibition at 0.3 µM (Sigma σ1): 17%; inhibition at 3 µM (Sigma σ1): 61%; pIC50 (mean ± SEM) GluN1-GluN2C [5]: 5.1 ± 0.062; pIC50 (mean ± SEM) GluN1-GluN2B [6]: 4.6 ± 0.062; % inhibition of binding, NMDA ([7]; 1 μM): 12%; inhibition at 1 µM (Serotonin 5-HT7): 14%; inhibition at 10 µM (Serotonin 5-HT7): 12%
CC[C@H](O)C(C[C@@H](C)N)(c1ccccc1)c1ccccc1 [(3S,6R)-DNML, (3S,6R)-6-amino-4,4-diphenylheptan-3-ol]	-11%	-1%	4.5 ± 0.031	0%	22%	4.7 ± 0.061	9%	27%	9%	10%	-1%	11%	9%	23%	12%	39%	15%	28%	15%	36%	inhibition at 0.3 µM (Sigma σ1): -4%; inhibition at 3 µM (Sigma σ1): 18%; pIC50 (mean ± SEM) GluN1-GluN2C [5]: 4.6 ± 0.038; pIC50 (mean ± SEM) GluN1-GluN2B [6]: 4.4 ± 0.042; % inhibition of binding, NMDA ([7]; 1 μM): 8%; % inhibition of binding, NMDA ([7]; 10 μM): 38%; inhibition at 1 µM (Serotonin 5-HT7): 8%; inhibition at 10 µM (Serotonin 5-HT7): 5%
